The test system of data set [1] is human colorectal adenocarcinoma COLO-205. As to the kind of experiment: DNA fragmentation, NC3000 DAPI. It counts as cell-based. The following applies: colo 205, versus negative control and camptothecin. Here is the method: (§1) Cell culture conditions: The cell cultures utilized in this study were human colorectal adenocarcinoma COLO-205 (ATCC CCL-222). Cultures were maintained in RPMI 1640 media (ATCC, Manassas Va.) supplemented with 10% fetal bovine serum (ATCC) maintained at 37° C. with 95% air and 5% CO2. Apoptosis analysis by Annexin V expression: The annexin V assay allows detection of the migration phosphatidylserine (PS) to the exterior surface of cells, a characteristic event in apoptotic cells. Approximately 2.5×10^6 cells were treated for 24 hours with 10 μM and 20 μM doses of the BQ test compounds. Controls used in all assays were camptothecin 10 and vehicle (DMSO). […] Samples were analyzed by using the Nucleo Counter NC3000 system annexin V assay (Chemometec, Allerød, Denmark). This system allows for measurement and quantification of stained cells. […] This enzyme mediated event can be quantified by measuring DNA fragments. […] After treatment with BQ's at the test doses, cells were fixed with 70% ethanol for at least 24 hours, stained with 1 μg/ml DAPI, and analyzed using the NC3000 instrument measuring DAPI intensity. […] Approximately 1×10^6 cells were stained with 5,5′,6,6′-Tetrachloro-1,1′,3,3′-tetraethyl-imidacarbocyanine iodide (JC-1) and 1 μg/ml DAPI and analyzed in the NC3000. depolarized cells will fluoresce green while cells with stable mitochondrial membrane potential will fluoresce orange. […]

For data set [2] the test system is unchanged. Nature of the data set: Apoptosis analysis by Annexin V expression. In kind it is cell-based. The following applies: 24 hours. The protocol: Cell culture conditions: The cell cultures utilized in this study were human colorectal adenocarcinoma COLO-205 (ATCC CCL-222). Cultures were maintained in RPMI 1640 media (ATCC, Manassas Va.) supplemented with 10% fetal bovine serum (ATCC) maintained at 37° C. with 95% air and 5% CO2. Apoptosis analysis by Annexin V expression: The annexin V assay allows detection of the migration phosphatidylserine (PS) to the exterior surface of cells, a characteristic event in apoptotic cells. Approximately 2.5×10^6 cells were treated for 24 hours with 10 μM and 20 μM doses of the BQ test compounds. Controls used in all assays were camptothecin 10 and vehicle (DMSO). After a 24-hour exposure, cells were stained with the annexin V conjugate, and propidium iodide (Biotium, Hayward, Calif.). Samples were analyzed by using the Nucleo Counter NC3000 system annexin V assay (Chemometec, Allerød, Denmark). This system allows for measurement and quantification of stained cells. A one-way ANOVA with post hoc Tukey test was also performed for all assays using GraphPad Prism version 6. DNA Fragmentation: DNA Fragmentation can be used as a marker for detection of cells undergoing apoptosis. This enzyme mediated event can be quantified by measuring DNA fragments. The Nucleo Counter NC3000 assay is based on removal of small DNA fragments and retention of 4′,6-diamidino-2-phenylindole (DAPI) stained higher weight fragments. After treatment with BQ's at the test doses, cells were fixed with 70% ethanol for at least 24 hours, stained with 1 μg/ml DAPI, and analyzed using the NC3000 instrument measuring DAPI intensity. Mitochondrial Membrane Permeability: Mitochondria permeability is central in the cell death process. The Nucleocounter NC3000 preset mitochondrial potential assay was used. Approximately 1×10^6 cells were stained with 5,5′,6,6′-Tetrachloro-1,1′,3,3′-tetraethyl-imidacarbocyanine iodide (JC-1) and 1 μg/ml DAPI and analyzed in the NC3000. depolarized cells will fluoresce green while cells with stable mitochondrial membrane potential will fluoresce orange. The change in ratio of green to orange fluorescence will determine the permeability state of the samples.

The test system is the same in data set [3]. As to the kind of experiment: Mitochondrial membrane permeability, JC-1 NC3000. In kind it is cell-based. The following applies: colo 205, versus negative control and camptothecin. The protocol:
as §1

The next data set has as its system TK-6 cells. Nature of the data set: DNA fragmentation, NC3000 DAPI assay. It counts as cell-based, human. The following applies: TK6, 48 hours. Here is the method: (§2) Methods—Cultures were exposed for 48 hours to ABQ 48 at doses from 10 μM to 180 μM. Cells were harvested counted and assessed for cell viability implementing the Trypan Blue exclusion method using the Countess™ automated cell counter (Invitrogen Corp. Carlsbad, Calif.). The percentage of viable cells was calculated and graphed using Excel (Microsoft Corp. Redmond, Wash.). The mitochondrial membrane permeability assays was determined applying the Nucleocounter 3000, JC-1 assay. DNA fragmentation and cell cycle alterations were analyzed also through the Nucleocounter 3000 instrument.
(§3) Bioactivity 3. DNA fragmentation—Fragmentation of DNA as a marker for apoptosis is a commonly used assay. Analysis was performed applying the Nucleo counter NC3000 DNA fragmentation assay. Determination of the degree of DNA fragmentation is based on the retention of DAPI, a nucleic acid staining reagent. As described previously TK-6, and Toledo cells were kept in culture at the specified conditions. Cells where then treated with the tested compounds as previously described for 48 hours, after which nutritional media removed, cells harvested, fixed with 70% ethanol, incubated and stained with 1 μg/ml DAPI according to manufacturer's specifications for image analysis measuring DAPI intensity.
(§4) DNA fragmentation—Analysis was performed applying the Nucleo counter NC3000 DNA fragmentation assay. Determination of the degree of DNA fragmentation is based on the retention of DAPI, a nucleic acid staining reagent. Prior to treatment with the tested compounds A431 and TK-6 cells were kept in culture at the specified conditions. Cells where then treated with the tested compounds at the respective IC50 concentrations ([…] DNA fragmentation protocol was as recommended by Nucleo counter NC3000 manufacturer.

Data set [4] has as its system NCI 60 human tumor cell line panel. Nature of the data set: NCI 60 human tumor cell line screen, one dose, whole panel. In kind it is cell-based. The following applies: for activity in the NCI 60 screen (growth inhibition, in words): one dose; for growth inhibition: 10 μM. Here is the method: (§5) The National Cancer Institute (NCI) 60 human tumor cell line screen uses genetically characterized cells to determine biological activity against various cell lines. The panel is comprised of various cell types representing some of the most important cancer types. Two of the benzazolo[3,2-a]quinolinium salts i.e. NBQ 48 (NSC: D-763303) and ABQ 48 (NSC: D-763307) were tested at a dose of 10 μM on the entire cell line panel. The complete details of the NCI-60 cell line screening are describe in document Feasibility of drug screening with panels of human tumor cell lines using a microculture tetrazolium assay. Cancer research, 1988, 48(3), 589-601 (here included by reference).
(§6) Briefly, the cancer cells are grown in RPM1 1640 medium for 24 hours. Experimental compounds dissolved in DMSO are incubated with cells at 10 μM. After incubation the cells are stained with sulforhodamine B and the absorbance is read on a plate reader. The data reported as a mean graph are shown in the drawings FIG. 21 through FIGS. 24A-24I. For five dose study the test compound is incubated with cells at five different concentrations with 10-fold dilutions, from 10^−4 M, 10^−5, 10^−6, 10^−7, and 10^−8 M. Rest of the procedure is similar to the one dose experiment. After measurement, the (GI50) is calculated from time zero, control growth, and the five concentration absorbance. Inhibitory concentrations (LC50) represent the average of two experiments.
(§7) All the one-dose data of these compounds is reported as a mean of the growth percent of BQ exposed cells. One dose assay results are relative to control and number of cells at time 0. Growth inhibition values are placed from 0 to 100 whereas lethality is reflected in values less than 0. A sample obtained value of 100 means that no growth was inhibited. If the value is for example 30 then growth inhibition is 70%. If a sample has a value of −30 then this means 30% lethality, conversely if the value would be −100 the all cells in the sample are dead.

The subject of data set [5] is Toledo cells. Nature of the data set: DNA fragmentation, NC3000 DAPI assay. In kind it is cell-based, human. The following applies: 48 hours. Here is the method:
as §2, §3

Data set [6] deals with TK6. As to the kind of experiment: Mitochondrial membrane permeability, JC-1 assay. It counts as cell-based, human. Here is the method:
as §2

A further data set has as its system Toledo. Nature of the data set: Mitochondrial membrane permeability, JC-1 assay. It counts as cell-based, human. The protocol: as §2
In data set [7] the test system is A431. As to the kind of experiment: Mitochondrial membrane permeability, JC-1 assay. It counts as cell-based, human. The protocol:
as §2

A further data set relates to Toledo lymphoma cells. Nature of the data set: Cell viability, Trypan Blue exclusion. It counts as cell-based, human. Here is the method: (§8) Cell cultures—The three cell lines A431 epitheloid carcinoma cells (ATCC CRL-1555), the human TK-6 lymphoblasts cells (ATCC CRL-8015) and Toledo lymphoma (CRL-2631 respectively) were obtained from American Type Culture Collection (ATCC, Manassas, Va.) and cultured on RPMI 1640 (ATCC) cell culture media with 10% fetal bovine serum (ATCC). Cell cultures were maintained in a cell culture incubator at 37° C. and 5% CO2.
as §2

Data set [8] concerns A431 epitheloid carcinoma cells. Nature of the data set: Cell viability, Trypan Blue exclusion. It counts as cell-based, human. Here is the method:
as §8, §2

For a further data set, the system named is TK-6 lymphoblasts cells. Nature of the data set: Cell viability, Trypan Blue exclusion. In kind it is cell-based, human. The protocol: as §8, §2
Data set [9] concerns TK6. Nature of the data set: Cell cycle disruption, DAPI image analysis. In kind it is cell-based, human. The following applies: Tk6, ABQ 48 exposure. Here is the method: as §2
(§9) Cell Cycle disruption—Cell cycle effects are of great importance to the characterization of any novel therapeutic agent. After treatment with the tested BQS 95 and BQS 38 at previously described conditions, cells were harvested, and stained with 10 μg/ml DAPI (a DNA marker) according to manufacturer's specifications and analyzed with the instrument using image analysis to measure the DAPI intensity as an indicator of the DNA density.

The test system of data set [10] is A431. As to the kind of experiment: Cell cycle disruption, DAPI image analysis. The following applies: A431, ABQ 48 exposure. In kind it is cell-based, human. Here is the method:
as §2, §9

The next data set relates to SK-MEL-5. Nature of the data set: NCI 60 human tumor cell line screen, one dose. In kind it is cell-based. The following applies: 10 μM. The protocol: as §5, §6, §7
The subject of another data set is U251. Nature of the data set: NCI 60 human tumor cell line screen, one dose. It counts as cell-based. The following applies: 10 μM. Here is the method: as §5, §6, §7
Another data set relates to KM12. As to the kind of experiment: NCI 60 human tumor cell line screen, one dose. It counts as cell-based. The following applies: 10 μM. The protocol: as §5, §6, §7
Another data set concerns A431 cells. As to the kind of experiment: DNA fragmentation, NC3000 DAPI assay. In kind it is cell-based, human. The following applies: A431, ABQ 48 exposure. The protocol: as §2, §4
Data set [11] has as its system Toledo cells. Nature of the data set: Cell cycle disruption, DAPI image analysis. The following applies: 48 hours. It counts as cell-based, human. The protocol: as §2
Bioactivity 4. Cell Cycle disruption—Cell cycle effects are of great importance to the characterization of any novel therapeutic agent. This most fundamental cellular process is integral in determining the effects of any drug upon the target cells. After treatment with the tested BQs at previously described conditions, cells were harvested, and stained with 10 μg/ml DAPI (a DNA marker) according to manufacturer's specifications and analyzed with the instrument using image analysis to measure the DAPI intensity as an indicator of the DNA density.

Data set [12] can be described thus: Cytotoxicity activity of CBQs. In kind it is cell-based. The following applies: human, A-431 cells; A-431 cell line.

A value given as a limit tells only on which side of the number the result lay.

With “7-(2,3,4-Trimethoxybenzyl)-3-aminostyrylbenzimidazo[3,2-a]quinolinium chloride [ABQ 234 TOM]”, the DNA fragmentation induction entry in data set [1] is “did not present evidence of DNA fragmentation”. Moreover, the apoptotic cells in data set [2] (10 μM) and in data set [2] (20 μM) was 91% in each case. In addition, the mitochondrial membrane permeabilization result in data set [3] is “higher mitochondrial permeabilization in comparison with the negative control (water as vehicle) and similar to the positive control camptothecin”.
For the molecule “7-(2,3,4-trimethoxybenzyl)-3-nitrobenzimidazo[3,2-a]quinolinium chloride [NBQ 234 TOM]”, the DNA fragmentation induction entry in [1] is “higher DNA fragmentation in comparison with the negative control (water as vehicle) and higher than the positive control camptothecin”. In addition, the apoptotic cells in data set [2] (10 μM) amounted to 83.7%; in data set [2] (20 μM), 87.5%. The mitochondrial membrane permeabilization entry in data set [3] was “higher mitochondrial permeabilization in comparison with the negative control (water as vehicle) but lower than cells treated with the positive control camptothecin”.
With “7-benzyl-3-nitrobenzimidazolo[3,2-a]quinolinium chloride [NBQ-48]”, the DNA fragmentation entry in the data set with TK-6 cells and in the data set on Toledo cells [5] was “higher than the negative control” each time. In data set [4], the “activity in the NCI 60 screen (growth inhibition, in words)” value was “less effective”.
With `Nc1ccc2c(ccc3n2c2ccccc2[n+]3Cc2ccccc2)c1.[Cl-]` [ABQ-48, 7-Benzyl-3-aminobenzimidazo[3,2-a]quinolinium chloride], the mitochondrial membrane permeability result in the data set with TK6 [6], in the data set on Toledo and in the data set on A431 [7] was “observed” in each case. The DNA fragmentation entry with TK-6 cells (listed as ABQ 48) was “observed”; with TK-6 cells (listed as ABQ48), “higher than the negative control”; in the data set on A431 cells, “observed”; in the data set on Toledo cells [5] (listed as ABQ 48), “observed”; in the data set on Toledo cells [5] (listed as ABQ48) it was “higher than the negative control”. In addition, the growth inhibition entry is given as “greater than 60%” in data set [4] (in no less than 8 cell lines); above 70% in [4] (in several cell lines); above 90% in the data set with SK-MEL-5; above 90% with U251; above 90% with KM12. In addition, the “activity in the NCI 60 screen (growth inhibition, in words)” value in data set [4] is given as “highly effective”. Also, the IC90 in the data set on Toledo lymphoma cells was found to be 100 µM; in data set [8] (A431), 90 µM; with TK-6 lymphoblasts cells (Tk6), 135 µM. Further, the IC50 in the data set with Toledo lymphoma cells (48 hours exposure) amounted to 50 µM; in data set [8] (A431, 48 hours exposure), 23 µM; in the data set on TK-6 lymphoblasts cells (Tk6, 48 hours exposure), 8.6 µM. Moreover, the cell cycle alteration result in the data set with TK6 [9] was “observed”; in the data set on A431 [10], “observed”; in the data set on Toledo cells [11] (listed as ABQ 48) it was “observed”; with Toledo cells [11] (listed as ABQ48), “arrested at the S/G2 stage”.
In data set [12], `Cc1ccc2sc3ccc4c(Cl)cccc4[n+]3c2c1` [CBQ-108, 4-Chloro-10-methylbenzothiazolo[3,2-a]quinolinium chloride] displayed an IC50 of 3.7 µM.

What is called IC90 is the concentration needed for an effect of 90%. For orientation: IC50 means the concentration that gives 50% inhibition. High values mean weaker potency, low ones greater potency.

For the origin of these results see US11311531B2, “Method for producing benzazoloquinolium (BQs) salts and using the biological activity of the composition” (Sistema Universitario Ana G. Mendez, Inc., priority 2014, dated 2022).
